Measurements from patent US20240383856A1 (Zedira GmbH, priority 2021, published 2024).
Read-outs that look alike come from different tables or passages of the source.

Assays:
[1] = logD by shake flask method (octanol / PBS pH 7.4, HPLC); assay type: physicochemical; settings: octanol / PBS pH 7.4, shake flask
Summary of the method: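 LogD obtained by HPLC measurement of how the compound distributes between PBS (pH 7.4) and octanol in a shake-flask experiment.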

[2] = Multiple-dosing PK study, tissue concentration in lung and liver; assay type: in vivo; settings: mice, 200 mg/kg oral twice daily, after the eighth dose (four days)
Protocol: Additionally, in a multiple-dosing PK study, II-3 was orally administered to 3 mice with 200 mg/kg doses (dose volume 10 mL/kg) twice daily (12 h intervals). After the animals were sacrificed, the liver and lung were removed. The homogenates of the respective tissues were analyzed by LC-MS to determine the concentration of the compound. The tissue concentration in lung and liver after the eighth dose (four days) was 6,800 and 10,400 ng/g, respectively, showing that the compound reaches the tissue at pharmacological active concentration.

[3] = molecular target: T1, recombinant human transglutaminase 2 (Homo sapiens, UniProt P21980); assay: Transglutaminase assay (DCC-assay): incorporation of dansylcadaverine into dimethylcasein; assay type: biochemical
T1 construct: purchased Zedira T022
T1 sequence (P21980 1-687): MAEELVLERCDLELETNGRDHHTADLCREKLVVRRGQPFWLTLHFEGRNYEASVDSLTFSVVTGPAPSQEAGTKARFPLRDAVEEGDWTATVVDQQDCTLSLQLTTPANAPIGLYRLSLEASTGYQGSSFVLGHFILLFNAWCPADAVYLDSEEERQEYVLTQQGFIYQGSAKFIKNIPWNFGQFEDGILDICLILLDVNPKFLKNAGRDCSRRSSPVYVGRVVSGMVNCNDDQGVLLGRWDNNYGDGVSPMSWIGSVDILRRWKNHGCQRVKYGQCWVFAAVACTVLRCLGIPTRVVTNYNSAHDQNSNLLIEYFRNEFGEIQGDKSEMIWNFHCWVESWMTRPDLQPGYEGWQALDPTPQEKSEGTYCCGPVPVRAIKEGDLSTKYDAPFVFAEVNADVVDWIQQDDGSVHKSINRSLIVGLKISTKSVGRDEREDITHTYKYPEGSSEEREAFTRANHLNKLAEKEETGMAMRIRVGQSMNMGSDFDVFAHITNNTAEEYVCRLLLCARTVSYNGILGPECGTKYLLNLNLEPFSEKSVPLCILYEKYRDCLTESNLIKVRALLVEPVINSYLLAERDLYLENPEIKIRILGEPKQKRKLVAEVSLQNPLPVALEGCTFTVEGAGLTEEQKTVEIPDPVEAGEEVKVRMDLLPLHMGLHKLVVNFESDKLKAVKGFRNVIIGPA
Summary of the method: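 IC50 is the inhibitor level that blocks 50% of initial activity. Activity is the fluorescence slope (λex 330, λem 500 nm) between 20 and 30 min of a 37 °C run, relative to a 2% DMSO control. The enzyme is recombinant human tissue transglutaminase, 10 nM final, tested against a 1:2 inhibitor dilution series in a pH 8.0 mix with 10 mM CaCl2, 10 mM glutathione, 16.7 µM dansylcadaverine and 4 µM N,N-dimethylcasein.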

logD [1]: 1 to 3
tissue concentration in liver [2]: 10,400 ng/g
tissue concentration in lung [2]: 6,800 ng/g
IC90 ([3]; TG2, table with the PK study): 0.18 µM
IC50 ([3]; TG2, table with the PK study, read-out: IC50): 0.023 µM
IC50 ([3]; recombinant human TG2 10 nM, dansylcadaverine incorporation into dimethylcasein, read-out: IC50 TG2): < 0.04 µM
SMILES: CNC(=O)C(=O)CC[C@H](NC(=O)c1oc2ccccc2c1C)C(=O)Nc1cccn(CC(=O)NC2C3CC4CC(C3)CC2C4)c1=O (stereo partly drawn) [II-3, (S)-N1-(1-(2-(2-adamantylamino)-2-oxoethyl)-2-oxo-1,2-dihydropyridin-3-yl)-N6-methyl-2-(3-methylbenzofuran-2-carboxamido)-5-oxohexanediamide]
